# Experimental data as given in US5049372A, “Anticancer activities in a host by increasing blood and plasma adenosine 5'-triphosphate (ATP) levels” (priority 1988, dated 1991).
# Read-outs that look alike come from different tables or passages of the source.
# Assays:
# CT26 tumors = test: Growth inhibition of s.c. footpad CT26 tumors in CB6F1 mice by daily i.p. adenine nucleotides (Table 1); assay type: in vivo, mouse; conditions: for inhibition at 25000 µM: Mus musculus, CT26, 360 h, 1 ml of 25 mM, based on tumor weights
# Procedure: The tumor cell lines employed were CT26, a mouse undifferentiated, aggressive colon carcinoma, and CAPAN-1, a well-differentiated human pancreatic adenocarcinoma. […] The cells are shown to be free of Mycoplasma contamination. Cells are cultured at 37° C. in a humidified atmosphere of 5% CO2 /95% air in MEM supplemented with antibiotics (100 units of penicillin per ml and 100 μg streptomycin per ml), L-glutamine (2 mM), non-essential amino acids (0.1 mM), sodium pyruvate (1 mM), and 10% fetal bovine serum.
# In the tests, females and males CB6F1 mice (a standard F1 hybrid of BALB/C and C57BL/6) obtained from Jackson Laboratories, Bar Harbor, Maine and athymic outbred NCr nu/nu mice (males and females) from the Department of Radiation Medicine, Massachusetts General Hospital, Boston, Mass. 02114 are used. All the mice are kept for at least two weeks before inoculation of the tumors and the start of treatment and are 7-9 weeks old (CB6F1) or 6-7 weeks old (athymic nu/nu) at the start of the procedure. Animals weigh 20-25 g (females) or 23-28 g (males), are housed 5-12 per cage, and have ad libitum access to food and water.
# Tumor cells are removed from subconfluent cultures by a mild trypsin-EDTA treatment, the cell pellet is washed once with MEM without serum and the cells are suspended at the desired cell numbers in PBS (phosphate-bufferedsaline, 8 g NaCl, 0.2 g KCl, 1.15 g Na2 HPO4.7H2 O, and 0.2 g KH2 PO4 per liter). Cell suspensions are shown to be at least 90% viable by trypan blue exclusion. Mice are injected subcutaneously in the right hind footpad with tumor cells suspended in 50 μl of PBS. The regular protocol (unless otherwise stated) consists of daily i.p. injections of 1 ml of 0.85% NaCl solution or 1 ml of 50 mM of AMP, ADP, or ATP in 0.85% NaCl (from stock solutions adjusted to pH 6.2) starting one day after tumor inoculation and given for ten consecutive days.
# Injections are administered with 30 gauge needles and the mice are lightly anesthetized with ether. The mice are weighed before the start of treatment and once a week during and after treatment. After the tumors become palpable, tumor sizes are determined every three days. The animals are sacrificed, tumors are excised and weighed before they reach 10% of the animals' weight.
# The growth inhibitory properties of adenine nucleotides against CT26 murine colon carcinoma, which are inoculated s.c. in the hind footpad of CB6F1 mice, are illustrated in Table 1 hereinbelow. […] No significant differences between males and females are observed either in the rate of tumor growth or in the tumor's response to adenine nucleotides treatment.
# [1] = Inhibition of host weight loss (cancer cachexia) in CT26 tumor-bearing mice; assay type: in vivo, mouse
# Procedure: (§1) A further series of tests are conducted whereby tumors are inoculated by injections of 2.5×10^5 CT26 cells (over 90% viability) in 50 μl of phosphate-buffered saline into the right hind footpad of CB6F1 mice. The treatments were initiated at a variety of times after inoculation of the tumors. The injection schedules started either 1 or 5 days after tumor inoculation when none of the tumors are palpable or when the tumors are clearly palpable (average calculated weight of 100 mg), which occur in 100% of the inoculated mice after 8-11 days. Mice are randomized, divided into groups, and injected daily with 2.2 ml of saline, adenosine, AMP, or ATP (compounds are in sterile saline solutions at concentrations of 25 mM with AMP and ATP solutions adjusted to pH 6.2). Injections are administered intraperitoneally with 30 gauge needles and the mice are lightly anesthetized with […]. The mice are weighed and tumor sizes measured before the start of the treatment schedule and every three days during and after the treatment schedule. These determinations are performed before injections during the treatment period.
# (§2) In particular, see FIG. 2. FIG. 2 illustrates inhibition of tumor growth (---) and host weight loss (-) in tumor-bearing mice by treatment with adenine nucleotides. Mice (CB6F1, 8 week old males) bearing palpable CT26 footpad tumors (on day 9 after tumor inoculation) are treated with saline (.smallcircle.), adenosine (o), AMP (Δ), or ATP (.quadrature.) as described herein. An untreated group is also included (x). Arrows indicate days of injection.
# (§3) FIG. 3 further illustrates inhibition of host weight loss in tumor-bearing animals by treatment with adenine nucleotides. Mice (CB6F1, males, 7 weeks old, in A, 10 weeks old in B, C) are inoculated with CT26 tumors and daily treatments (for 10 consecutive days) with saline (.smallcircle.), adenosine (o), AMP (Δ), or ATP (.quadrature.) are initiated 1 day (A), 5 days (B), or 9 days after tumor inoculation (when all the tumors were palpable) (C). Arrows indicate days of injection. Experimental procedures were outlined in the text.
# RBC ATP pools [2] = test: Expansion of RBC ATP pools and blood plasma ATP levels after i.p. injection (Table 4); assay type: in vivo, mouse
# Procedure: (§4) The mice are anesthetized with ether during the procedure. Plasma or Hanks' (Balanced Salt Solution) BSS media from incubated isolated RBCs (Red Blood Cells) are prepared by centrifugation of whole blood or RBCs in a Beckman microfuge (30 seconds at 8000 xg) and samples of 100 μl are added to 1 ml of ice-cold 7% trichloroacetic acid. Red blood cells are prepared by centrifugation of whole blood (1500 xg for 5 minutes at 4° C.) and removal of plasma and the buffy coat is followed by a wash of the pelleted RBCs (from 250 μl of whole blood) in 5 ml of ice-cold Hanks' BSS. After centrifugations, the RBCs pellet is resuspended in Hanks' BSS to yield a total volume with the original hematocrit (percent of RBCs volume in the whole blood). Aliquots of 20 μl of RBCs suspensions or whole blood are added to 1 ml of ice-cold 7% trichloroacetic acid. Extraction of acid-soluble nucleotides and determinations of ATP levels by luminometry followed procedures discussed hereinabove. Levels of [^3 H]ATP in whole blood, RBCs, plasma, or RBCs incubation media (Hanks' BSS) are determined after incorporation of 250 μCi of [^3 H]adenosine of specific radioactivity of 30 Ci/mmol (1 Ci=3.7×10^10 becquerels) into whole blood or RBC suspensions (250 μl total) followed by immediate trichloroacetic acid extractions as described above. Two dimensional thin layer chromatography on poly(ethylene)imine cellulose with an unlabeled ATP carrier is performed according to Bochner and Ames, J. Biol. Chem., 257, pp. 9759-9769, 1982). For the determination of whole blood or isolated RBC [^3 H]ATP pools, 10 μl of a 1 ml initial trichloroacetic acid extract are chromatographed. Determinations of [^3 H]ATP levels in blood plasma or RBCs incubation media are performed on 300 μl of an initial 1 ml trichloroacetic acid extract which are lyophilized and redissolved in 15 μl of water. After chromatography, the spots corresponding to the ATP carrier are cut, eluted with 0.5 ml of 4 N ammonium hydroxide, and radioactivity determined in 10 ml of scintillation fluid.
# Single intraperitoneal injections of 2 ml of 35 mM of AMP or ATP in saline at pH 6.2 into CB6F1 mice result in expansions of RBC ATP pools in these mice (see Table 4).
# The expansions of RBC ATP pools after i.p. injections of AMP or ATP could be detected 30 minutes after injections and lasted for approximately 6-8 hours after the nucleotides were completely adsorbed across the peritoneal membrane and into the systemic circulation. The rates of adsorption of intraperitoneal AMP or ATP solutions varied in different strains of mice. […] These plasma ATP levels originate in RBCs since they can be metabolically labeled by [^3 H]adenosine. Plasma ATP pools which originate in the dense granules of blood platelets would not be radioactively labeled under the same conditions (e.g., Holmsen, 1985, Seminars in Hematol, 22, 219-240). The experiments described in Tables 4 and 5 include uptake of [^3 H]adenosine by whole blood (Table 4) or isolated washed RBCs (Table 5 below). In both cases, all the extracellular ATP, determined seconds after the uptake of [^3 H]adenosine, is metabolically labeled.
# RBC ATP pools [3] = test: RBC ATP pools after in vitro incubation of whole mouse blood with 1 mM compound (Table 6); assay type: cell-based; conditions: 1 mM compound, 30 min, bioluminometry
# Procedure: ^+ RBC ATP pools were determined in isolated washed RBCs after
# incubations of whole blood with 1 mM of the specified compound by
# bioluminometry. Data represent means ± S.D. of three separate
# [4] = system: CT26 colon adenocarcinoma; test: Growth inhibition of footpad CT26 colon adenocarcinoma in CB6F1 mice, second series (FIGS. 2 and 3); assay type: in vivo, mouse; conditions: for Anticancer activities against established footpad CT26 colon adenocarcinoma: CB6F1 mice, in words; for Inhibition of growth of palpable CT26 tumors (in words): daily i.p. in 2.2 ml saline, pH 6.2, 12 days, starting after tumors palpable, equimolar amounts
# Procedure: as §1, §2
# The magnitude of the antitumor activities of AMP and ATP depends to a small extent on the pH of the solution administered intraperitoneally. This property is probably related to the number of negative charges on the phosphate groups (the pKa of the secondary phosphate is around 6.6). AMP and especially ATP have some buffering capacity, and at a pH below 6.6 they carry a smaller net charge than at a physiological pH. The lower charge of these molecules enhances the initial (first hour) transport of AMP and ATP across the peritoneal membrane and into the systemic circulation (see Torres, et al., 1978, Pharmacol., 17, 330-340). […] The treatment schedule of palpable CT26 tumors which is illustrated in FIG. 2 consistently yields 10-20% of "cures". These mice remain tumor-free for at least two months.
# as §3, with “[…])” for “C) are inoculated with CT26 tumors and daily treatments (for 10 consecutive days)”
# RBC ATP pools [5] = test: Stability of expanded RBC ATP pools in washed isolated RBCs in vitro after i.p. injection (Table 5); design: species or system mouse; conditions: average of two experiments
# Procedure: as §4
# Two hour incubations of washed isolated RBCs containing normal or expanded ATP pools in Hanks' BSS result in relatively small decreases in RBC ATP pools with the expanded pools being maintained well above normal levels (Table 5). The expansions of RBC ATP pools after i.p. administration of AMP or ATP in vivo is presumably the result of their dephosphorylation followed by the RBCs uptake of the adenosine which is generated in situ.
# [6] = experiment 6, 10 F per group, 0.5 × 10^5 cells, day 18, 1 ml of 50 mM i.p. daily (Ap4A 10 mM)
# [7] = experiment 1, 10 F per group, 0.5 × 10^6 cells, day 15, 1 ml of 25 mM i.p. daily
# [8] = experiment 2, 10 M per group, 0.5 × 10^6 cells, day 15, 1 ml of 25 mM i.p. daily
# [9] = 5 hours after i.p. injection of 2 ml of 35 mM, CB6F1, bioluminometry, citrate-dextrose
smiles,measurement,setting,value
"Nc1ncnc2c1ncn2[C@@H]1O[C@H](COP(=O)(O)OP(=O)(O)OP(=O)(O)OP(=O)(O)OC[C@H]2O[C@@H](n3cnc4c(N)ncnc43)[C@H](O)[C@@H]2O)[C@@H](O)[C@H]1O [AP4 A, reference compound]",Tumor diameter,CT26 tumors; [6],0.9 ± 0.3 cm
same,Tumor weight,CT26 tumors; [6],0.74 ± 0.21 g
Nc1ncnc2c1ncn2[C@@H]1O[C@H](COP(=O)(O)OP(=O)(O)OP(=O)(O)O)[C@@H](O)[C@H]1O [ATP-MgCl2],inhibition at 25000 µM,"CT26 tumors; read-out: Inhibition of tumor growth (% of saline-treated), experiment 1, 10 F per group, 0.5 × 10^6 cells, day 15",18%
same,inhibition at 25000 µM,"CT26 tumors; read-out: Inhibition of tumor growth (% of saline-treated), experiment 2, 10 M per group, 0.5 × 10^6 cells, day 15",26%
same,Tumor diameter,CT26 tumors; [7],1.4 ± 0.2 cm
same,Tumor weight,CT26 tumors; [7],1.59 ± 0.24 g
same,Tumor diameter,CT26 tumors; [8],1.4 ± 0.3 cm
same,Tumor weight,CT26 tumors; [8],1.38 ± 0.40 g
"Nc1ncnc2c1ncn2[C@@H]1O[C@H](CO)[C@@H](O)[C@H]1O [Adenosine, adenosine]",Deaths before stated day after tumor inoculation,"[1]; FIG. 3, treatment initiated day 1 (A), day 5 (B) or day 9 (C)","No deaths occurred before day 19 (A) or day 25 (B,C)"
same,"Effect on tumor growth and rate of weight loss, schedules ending before tumors become large","[1]; FIGS. 3A and 3B, treatment from day 1 or day 5",having only a small effect on either of the two phenomena
same,Inhibition of host weight loss (in words),"[1]; tumors of similar sizes, FIG. 2 data",inhibit weight loss
same,Plasma ATP levels,RBC ATP pools [2]; [9],1.12 ± 0.28 µM
same,RBC ATP pools,RBC ATP pools [2]; [9],1.10 ± 0.24 mM
same,Plasma [^3 ]ATP levels immediately after [^3 H]adenosine incorporation into whole blood,"RBC ATP pools [2]; 5 hours after i.p. injection of 2 ml of 35 mM, CB6F1, radioactivity corrected by RBC specific radioactivity",0.77 ± 0.30 µM
same,Expansion of RBC ATP pools (in words),"RBC ATP pools [2]; i.p. injection, host animals",only slightly effective in expanding mouse RBC ATP pools
same,RBC ATP pools (after 30 min incubations in heparinized mouse blood),RBC ATP pools [3],0.55 ± 0.17 µM
same,Anticancer activities against established footpad CT26 colon adenocarcinoma,[4],without such effects
same,Deaths before stated day after tumor inoculation,"[4]; FIG. 2 experiment, palpable CT26 tumors, 10 animals per group",No deaths occurred before day 22
same,Inhibition of growth of palpable CT26 tumors (in words),[4],Much weaker anticancer activities
same,"Medium (Hanks' BSS) [^3 H]ATP levels immediately after [^3 H]adenosine incorporation into isolated, washed RBCs (at time 0)",RBC ATP pools [5]; time 0,1.20 µM
same,ATP levels in the medium (Hanks' BSS),"RBC ATP pools [5]; time 0, bioluminometry",1.71 µM
same,"RBC ATP pools (37° C.), 0 min","RBC ATP pools [5]; washed RBCs in Hanks' BSS, 37° C., 0 min",0.69 mM
same,"RBC ATP pools (37° C.), 120 min","RBC ATP pools [5]; washed RBCs in Hanks' BSS, 37° C., 120 min",0.54 mM
"O=P(O)(O)O [inorganic phosphate, reference compound]",Anticancer activities against established footpad CT26 colon adenocarcinoma,[4],without such effects
same,Inhibition of growth of palpable CT26 tumors (in words),[4],without any effects on the growth of CT26 tumors
"O=P(O)(O)OP(=O)(O)O [inorganic pyrophosphate, reference compound]",Anticancer activities against established footpad CT26 colon adenocarcinoma,[4],without such effects
same,Inhibition of growth of palpable CT26 tumors (in words),[4],without any effects on the growth of CT26 tumors
